Assay results published in article PMC10135567, “New Indole-3-Propionic Acid and 5-Methoxy-Indole Carboxylic Acid Derived Hydrazone Hybrids as Multifunctional Neuroprotectors” (Antioxidants, 2023).

How the values were obtained:
[1] = MTT cell viability assay (cytotoxicity), SH-SY5Y; settings: human, SH-SY5Y neuroblastoma cells
Experimental: Neuroblastoma cell line SH-SY5Y (94030304) was acquired from the European Collection of Cell Cultures (ECACC, Salisbury, UK). Cells were cultured in a medium prepared with RPMI basic media supplemented with 10% heat-inactivated FBS (fetal bovine serum), 2 mM L-glutamine, 1% antibiotics (penicillin/streptomycin), and incubated at 37 °C in a humidified atmosphere containing 5% of CO2. The culture’s medium was replaced at a time interval of 2–3 days.
(§1) Cell viability was assessed via the mitochondrial reductase-dependent reaction of (3-(4,5-dimethylthiazol-2-yl)- 2,5-diphenyl tetrazolium bromide (MTT, cat. no. 475989, Calbiochem, Merck KGaA, Darmstadt, Germany). The SH-SY5Y and bEnd3 cell lines were seeded in 96-well plates at a density of 0.7 × 10^4 (bEnd3) or 2 × 10^4 (SH-SY5Y) cells/well and allowed to adhere for 24 h at 37 °C, 5% CO2. Then, the cells were incubated with the compounds (1–500 μM) for a preset time (24 h). For the solvent, the control cells were treated with DMSO corresponding to the highest concentration of DMSO in the samples (0.5% DMSO) in order to exclude its cytotoxic effect on the cells. For each concentration, a set of at least 6 wells were used. After incubation, the solution from each well was exchanged with fresh culture medium (100 µL/well), containing the MTT reagent (0.5 mg/mL) and incubated for 3 h at 37 °C in a humidified atmosphere and 5% CO2. The obtained formazan crystals were dissolved in 100 µL/well of 5% formic acid in propan-2-ol solution (or DMSO). The absorbance was measured at 570 nm via multiplate reader Tecan Infinite F200 PRO (Tecan Trading AG., Männedorf, Switzerland) or Synergy 2 (BioTek Instruments, Inc., Highland Park, Winooski, VT, USA).
(§2) Both the SH-SY5Y and bEnd3 cells were treated with the test compounds in a concentration range from 1 to 500 µM for 24 h.

[2] = MTT cell viability assay (cytotoxicity), bEnd3; assay type: cell-based, mouse; settings: mouse, bEnd3 brain endothelial cells, 1–500 µM
Experimental: Mouse-brain endothelial cell line bEnd3 [36] (CRL-2299) was purchased from the American Type Culture Collection (ATCC, Manassas, VA, USA). The cells were cultured in DMEM (Dulbeco’s modified essential medium) (cat. no. 30-2002, ATCC, Manassas, VA, USA), supplemented with 10% heat-inactivated FBS (cat. no. F7524, Sigma-Aldrich Co. LLC, St. Louis, MO, USA), 1 mM L-glutamine (cat. no. G7513, Sigma-Aldrich Co. LLC, St. Louis, MO, USA) and 1× Antibiotic-Antimycotic solution (penicillin: streptomycin: amphotericin B (100 U/mL: 0.10 mg/mL: 0.25 µg/mL) (cat. no. A5955, Sigma-Aldrich Co. LLC, St. Louis, MO, USA) at 37 °C in a humidified atmosphere containing 5% CO2. The cells were passaged in 75 cm^2 flasks every 3–5 days via trypsinization (StableCell Trypsin solution, cat. no. T2610, Sigma-Aldrich Co. LLC, St. Louis, MO, USA).
as §1, §2

[3] = tested on: isolated rat-brain synaptosomes; assay: 6-OHDA-induced neurotoxicity in isolated rat synaptosomes, synaptosomal viability; assay type: cell-based; settings: 10 µM pre-incubation 30 min, then 150 µM 6-OHDA 1 h; for viability at 10 µM: Rattus norvegicus, read-out: synaptosomal viability (SV) preserved, as compared to 6-OHDA
Experimental: This neurotoxicity model was based on the metabolism and auto-oxidation of 6-hydroxy dopamine responsible for the reactive oxygen species and quinones generation, ultimately leading to neurotoxicity and neurodegeneration. The experiment was performed by pre-incubation of the synaptosomes with 10 µM of the compounds for 30 min, followed by the addition of 150 µM 6-hydroxy dopamine for induction of neurotoxicity. After 1 h, they were centrifuged twice for 1 min at 15,000 × g. After the second wash, the precipitates were resolved with buffer B and glucose.

bEnd3 monolayer = assay: Permeability assay, static BBB model of bEnd3 monolayer (streptavidin-HRP passage); assay type: cell-based, mouse; settings: 90 min
Experimental: To evaluate the compounds’ effect on a BBB model, bEnd3 endothelial cells were seeded on polycarbon (PC) cell-culture inserts with 0.4 µm pore size (cat. no. 1CH3.1, BRAND GMBH + CO KG, Wertheim, Germany) and a density of 5.6 × 10^3 cells/insert. The inserts were placed in a 24-well plate containing 1 mL of cell-culture medium. […] On the second day of incubation, the cell-culture medium was refreshed. To ensure 100% confluence, the inserts were evaluated for medium leakage before the experiment. […] Following the incubation, the inserts were placed in a new 24-well plate containing 1 mL Phenol Red free–DMEM (cat. no. D1145, Sigma-Aldrich Co. LLC, St. Louis, MO, USA) without serum. In the upper chamber, a solution of streptavidin, conjugated with horse-radish peroxidase (HRP, cat. no. SA00001-0, Proteintech, Rosemont, Illinois, USA) (1:1000) in serum-free phenol red medium was added. The cells were further incubated for 5 min at 37 °C and 5% CO2, after which the inserts were removed. The remaining medium in the 24-well plate was collected and vortexed briefly, and 3 × 50 µL aliquots were transferred into a 96-well plate. A total of 50 µL TMB Signal+ substrate solution (BUF054A, Bio-Rad, Hercules, CA, USA) was added to each well and incubated for 5 min at 37 °C. The HRP converted the TMB to a blue-colored product. To stop the reaction, 50 µL of 0.2 N H2SO4 was added that caused the blue color to turn yellow. […] Each condition was tested at least twice.
To further explore the neuroprotective effect of the compounds, we tested their ability to influence the BBB and its permeability, utilizing a static BBB model with brain microvascular endothelial cell line bEnd3 [36], as it would be essential for the compounds to pass the BBB and protect the neuronal cells. In addition to their endothelial origin, the bEnd3 cells were strongly connected by specific proteins (ZO-1, claudin-5) forming tight junctions (TJs). This was crucial for preventing unregulated […] transport and sustaining the apical–basal polarity of the monolayer. Here, we determined any changes in the permeability of the BBB by imitating an endothelial barrier via a static BBB model of bEnd3 cells (Figure 11a,c,e). This allowed us to determine the possibility of drug passage. It should be noted, that even though drug passage was desirable, any irreversible modifications of the cell monolayer and the TJs were considered threatening. Therefore, in parallel to the permeability tests, the bEnd3 cells were stained for TJ-formation and ZO-1 distribution (Figure 11b,d,f).

COc1ccc2[nH]c(C(=O)NN=Cc3cc(OC)c(O)c(OC)c3)cc2c1 [Compound 5f, N′-(4-Hydroxy-3,5-dimethoxybenzylidene)-5-methoxy-1H-indole-2-carbohydrazide]
IC50 at 24 h [1]: 287 µM | IC50 at 24 h [2]: 184 µM | viability at 10 µM [3]: 56% | change of permeability of bEnd3 monolayer vs. control (in words) (bEnd3 monolayer; 10 µM): decreased it

COc1ccc2[nH]c(C(=O)NN=Cc3ccc(O)c(O)c3)cc2c1 [Compound 5b, N′-(3,4-Dihydroxybenzylidene)-5-methoxy-1H-indole-2-carbohydrazide]
IC50 at 24 h [1]: 111 µM | IC50 at 24 h [2]: 158 µM | viability at 10 µM [3]: 44% | change of permeability of bEnd3 monolayer vs. control (in words) (bEnd3 monolayer; 10 µM): passage through the BBB model was induced | change of permeability of bEnd3 monolayer vs. control (in words) (bEnd3 monolayer; 50 µM): reduced the permeability

COc1ccc2[nH]c(C(=O)NN=Cc3ccc(O)c(OC)c3)cc2c1 [Compound 5d, N′-(4-Hydroxy-3-methoxybenzylidene)-5-methoxy-1H-indole-2-carbohydrazide]
IC50 at 24 h [1]: 98.2 µM | IC50 at 24 h [2]: 353 µM | viability at 10 µM [3]: 44% | change of permeability of bEnd3 monolayer vs. control (in words) (bEnd3 monolayer; 10 µM): decreased it

COc1ccc2[nH]c(C(=O)NN=Cc3cccc(O)c3O)cc2c1 [Compound 5a, N′-(2,3-Dihydroxybenzylidene)-5-methoxy-1H-indole-2-carbohydrazide]
IC50 at 24 h [1]: 79.3 µM | IC50 at 24 h [2]: 197 µM | viability at 10 µM [3]: 56% | change of permeability of bEnd3 monolayer vs. control (in words) (bEnd3 monolayer; 10 µM): passage through the BBB model was induced | change of permeability of bEnd3 monolayer vs. control (in words) (bEnd3 monolayer; 50 µM): reduced the permeability

N′-(4-Hydroxy-2-methoxybenzylidene)-3-(1H-indol-3-yl)propanehydrazide [Compound 3e]
synaptosomal viability (SV) preserved, as compared to 6-OHDA [3]: 33% | change of permeability of bEnd3 monolayer vs. control (in words) (bEnd3 monolayer; 50 µM): increased the permeability

COc1ccc2[nH]c(C(=O)NN=Cc3ccc(O)cc3O)cc2c1 [Compound 5c, N′-(2,4-Dihydroxybenzylidene)-5-methoxy-1H-indole-2-carbohydrazide]
IC50 at 24 h [1]: 73.9 µM | IC50 at 24 h [2]: > 500 µM | viability at 10 µM [3]: 44% | change of permeability of bEnd3 monolayer vs. control (in words) (bEnd3 monolayer; 50 µM): reduced the permeability

COc1cc(C=NNC(=O)CCc2c[nH]c3ccccc23)ccc1O [Compound 3d, N′-(4-Hydroxy-3-methoxybenzylidene)-3-(1H-indol-3-yl)propanehydrazide]
IC50 at 24 h [1]: 156 µM | IC50 at 24 h [2]: 367 µM | viability at 10 µM [3]: 33% | change of permeability of bEnd3 monolayer vs. control (in words) (bEnd3 monolayer; 50 µM): increased the permeability

COc1ccc2[nH]cc(CCNC(C)=O)c2c1 [Melatonin]
IC50 at 24 h [1]: > 500 µM | IC50 at 24 h [2]: > 500 µM | viability at 10 µM [3]: 78% | influence on the permeability of the monolayer (in words) (bEnd3 monolayer; 10 or 50 µM): did not influence the permeability

COc1ccc(C=NNC(=O)c2cc3cc(OC)ccc3[nH]2)c(O)c1 [Compound 5e, N′-(2-Hydroxy-4-methoxybenzylidene)-5-methoxy-1H-indole-2-carbohydrazide]
IC50 at 24 h [1]: 200 µM | IC50 at 24 h [2]: 12.1 µM | viability at 10 µM [3]: 56%

COc1cc(C=NNC(=O)CCc2c[nH]c3ccccc23)cc(OC)c1O [Compound 3f, N′-(4-Hydroxy-3,5-dimethoxybenzylidene)-3-(1H-indol-3-yl)propanehydrazide]
IC50 at 24 h [1]: > 500 µM | IC50 at 24 h [2]: > 500 µM | viability at 10 µM [3]: 44% | increase in the permeability of bEnd3 monolayer (bEnd3 monolayer; 10 µM): 0.5 times | change of permeability of bEnd3 monolayer vs. control (in words) (bEnd3 monolayer; 50 µM): increased the permeability
